test system: barnyard grass; assay: Test Example 3: herbicidal effect by foliage application, Wagner pot (Table 18, symbol H); format: in vivo, barnyard grass (Echinochloa crus-galli); details: amount of applied herbicide 320 g/ha
Procedure, shortened: (§1)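 Plants were sown in alluvial soil held under 0.1–0.5 cm standing water and grown 14 days in a greenhouse at 25–30 °C. An emulsifiable formulation, water-diluted to the set dose, was then sprayed onto the foliage, and effects were scored three weeks later using previously defined criteria.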

`COc1cc(F)ccc1-c1sc2ccc(C(C)=O)cc2c1-c1c(O)c(C)nn(C)c1=O` [2-192] was tested. Which “herbicidal effect on H: barnyard grass” value did it give?
The value was 4 (Herbicidal rate of 70% or more and less than 90%).

test system: Chinese sprangletop; assay: Test Example 3: herbicidal effect by foliage application, Wagner pot (Table 18, symbol D); format: in vivo, chinese sprangletop (Leptochloa chinensis); details: amount of applied herbicide 320 g/ha
Procedure, shortened: as §1

Which “herbicidal effect on D: Chinese sprangletop” value does the source give for `COc1cc(F)ccc1-c1sc2ccc(C(C)=O)cc2c1-c1c(O)c(C)nn(C)c1=O` [2-192] here?
Its value is 2 (Herbicidal rate of 20% or more and less than 40%).

test system: rice flat sedge; assay: Test Example 3: herbicidal effect by foliage application, Wagner pot (Table 18, symbol E); format: in vivo, rice flat sedge (Cyperus iria); details: amount of applied herbicide 320 g/ha
Procedure, shortened: as §1

`COc1cc(F)ccc1-c1sc2ccc(C(C)=O)cc2c1-c1c(O)c(C)nn(C)c1=O` [2-192] was tested. Which “herbicidal effect on E: rice flat sedge” value did it give?
The value was 2 (Herbicidal rate of 20% or more and less than 40%).

test system: southern crabgrass; assay: Test Example 4: herbicidal effect by soil treatment (Table 19, symbol F); format: in vivo, southern crabgrass (Digitaria ciliaris); details: amount of applied herbicide 320 g/ha
Procedure, shortened: (§2)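 Soil-surface application: an emulsion agent diluted with water to the predetermined dose is sprayed uniformly over seeds lying under roughly 1.5 cm of sterilized diluvial soil. Boxes stay in a greenhouse at 25° C. to 30° C. Three weeks later, each species is graded on previously defined criteria.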

`COc1cc(F)ccc1-c1sc2ccc(C(C)=O)cc2c1-c1c(O)c(C)nn(C)c1=O` [2-192] was tested. Which “F: southern crabgrass, herbicidal effect rating” value did it give?
The value was 0 (Herbicidal rate of 5% or less (almost no effect)).

test system: green foxtail; assay: Test Example 4: herbicidal effect by soil treatment (Table 19, symbol G); format: in vivo, green foxtail (Setaria viridis); details: amount of applied herbicide 320 g/ha
Procedure, shortened: as §2

With `COc1cc(F)ccc1-c1sc2ccc(C(C)=O)cc2c1-c1c(O)c(C)nn(C)c1=O` [2-192] as the compound, how does the “G: green foxtail, herbicidal effect rating” value read?
Its value is 3 (Herbicidal rate of 40% or more and less than 70%).

test system: barnyard grass; assay: Test Example 4: herbicidal effect by soil treatment (Table 19, symbol H); format: in vivo, barnyard grass (Echinochloa crus-galli); details: amount of applied herbicide 320 g/ha
Procedure, shortened: as §2

Which “H: barnyard grass, herbicidal effect rating” value does the source give for `COc1cc(F)ccc1-c1sc2ccc(C(C)=O)cc2c1-c1c(O)c(C)nn(C)c1=O` [2-192] here?
The value was 1 (Herbicidal rate of 5% or more and less than 20%).

test system: wild oat; assay: Test Example 4: herbicidal effect by soil treatment (Table 19, symbol I); format: in vivo, wild oat (Avena fatua); details: amount of applied herbicide 320 g/ha
Procedure, shortened: as §2

How did the “I: wild oat, herbicidal effect rating” value turn out when `COc1cc(F)ccc1-c1sc2ccc(C(C)=O)cc2c1-c1c(O)c(C)nn(C)c1=O` [2-192] was run?
The value was 0 (Herbicidal rate of 5% or less (almost no effect)).

test system: blackgrass; assay: Test Example 4: herbicidal effect by soil treatment (Table 19, symbol J); format: in vivo, blackgrass (Alopecurus myosuroides); details: amount of applied herbicide 320 g/ha
Procedure, shortened: as §2

For `COc1cc(F)ccc1-c1sc2ccc(C(C)=O)cc2c1-c1c(O)c(C)nn(C)c1=O` [2-192], which “J: blackgrass, herbicidal effect rating” value is on record?
Its value is 0 (Herbicidal rate of 5% or less (almost no effect)).

test system: Italian ryegrass; assay: Test Example 4: herbicidal effect by soil treatment (Table 19, symbol K); format: in vivo, Italian ryegrass (Lolium multiflorum); details: amount of applied herbicide 320 g/ha
Procedure, shortened: as §2

`COc1cc(F)ccc1-c1sc2ccc(C(C)=O)cc2c1-c1c(O)c(C)nn(C)c1=O` [2-192] was tested. Which “K: Italian ryegrass, herbicidal effect rating” value did it give?
The value was 0 (Herbicidal rate of 5% or less (almost no effect)).

test system: windgrass; assay: Test Example 4: herbicidal effect by soil treatment (Table 19, symbol L); format: in vivo, windgrass (Apera spica-venti); details: amount of applied herbicide 320 g/ha
Procedure, shortened: as §2

For `COc1cc(F)ccc1-c1sc2ccc(C(C)=O)cc2c1-c1c(O)c(C)nn(C)c1=O` [2-192], which “L: windgrass, herbicidal effect rating” value is on record?
The value was 0 (Herbicidal rate of 5% or less (almost no effect)).

test system: velvetleaf; assay: Test Example 4: herbicidal effect by soil treatment (Table 19, symbol M); format: in vivo, velvetleaf (Abutilon theophrasti); details: amount of applied herbicide 320 g/ha
Procedure, shortened: as §2

`COc1cc(F)ccc1-c1sc2ccc(C(C)=O)cc2c1-c1c(O)c(C)nn(C)c1=O` [2-192] was tested. Which “M: velvetleaf, herbicidal effect rating” value did it give?
The value was 0 (Herbicidal rate of 5% or less (almost no effect)).

test system: redroot pigweed; assay: Test Example 4: herbicidal effect by soil treatment (Table 19, symbol N); format: in vivo, redroot pigweed (Amaranthus retroflexus); details: amount of applied herbicide 320 g/ha
Procedure, shortened: as §2

With `COc1cc(F)ccc1-c1sc2ccc(C(C)=O)cc2c1-c1c(O)c(C)nn(C)c1=O` [2-192] as the compound, how does the “N: redroot pigweed, herbicidal effect rating” value read?
Its value is 4 (Herbicidal rate of 70% or more and less than 90%).

test system: lambsquarters; assay: Test Example 4: herbicidal effect by soil treatment (Table 19, symbol O); format: in vivo, lambsquarters (Chenopodium album); details: amount of applied herbicide 320 g/ha
Procedure, shortened: as §2

For `COc1cc(F)ccc1-c1sc2ccc(C(C)=O)cc2c1-c1c(O)c(C)nn(C)c1=O` [2-192], which “O: lambsquarters, herbicidal effect rating” value is on record?
The value was 4 (Herbicidal rate of 70% or more and less than 90%).

test system: chickweed; assay: Test Example 4: herbicidal effect by soil treatment (Table 19, symbol P); format: in vivo, common chickweed (Stellaria media); details: amount of applied herbicide 320 g/ha
Procedure, shortened: as §2

For `COc1cc(F)ccc1-c1sc2ccc(C(C)=O)cc2c1-c1c(O)c(C)nn(C)c1=O` [2-192], which “P: chickweed, herbicidal effect rating” value is on record?
The value was 0 (Herbicidal rate of 5% or less (almost no effect)).

test system: persian speedwell; assay: Test Example 4: herbicidal effect by soil treatment (Table 19, symbol R); format: in vivo, Persian speedwell (Veronica persica); details: amount of applied herbicide 320 g/ha
Procedure, shortened: as §2

How did the “R: persian speedwell, herbicidal effect rating” value turn out when `COc1cc(F)ccc1-c1sc2ccc(C(C)=O)cc2c1-c1c(O)c(C)nn(C)c1=O` [2-192] was run?
The value was 0 (Herbicidal rate of 5% or less (almost no effect)).

test system: southern crabgrass; assay: Test Example 5: herbicidal effect by foliage application, plastic box (Table 20, symbol F); format: in vivo, southern crabgrass (Digitaria ciliaris); details: foliage application, 320 g/ha, evaluated three weeks after application
Procedure, shortened: (§3)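 Sow seeds spot-wise in sterilized diluvial soil; cover with ~1.5 cm soil. Grow 14 days in greenhouse, 25° C. to 30° C. Spray foliage with emulsion diluted to predetermined amount. Rate effect after 3 weeks.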

Which “herbicidal effect on F: southern crabgrass (criteria 0-5)” value does the source give for `COc1cc(F)ccc1-c1sc2ccc(C(C)=O)cc2c1-c1c(O)c(C)nn(C)c1=O` [2-192] here?
Its value is 4 (Herbicidal rate of 70% or more and less than 90%).

test system: green foxtail; assay: Test Example 5: herbicidal effect by foliage application, plastic box (Table 20, symbol G); format: in vivo, green foxtail (Setaria viridis); details: foliage application, 320 g/ha, evaluated three weeks after application
Procedure, shortened: as §3

`COc1cc(F)ccc1-c1sc2ccc(C(C)=O)cc2c1-c1c(O)c(C)nn(C)c1=O` [2-192] was tested. Which “herbicidal effect on G: green foxtail (criteria 0-5)” value did it give?
The value was 4 (Herbicidal rate of 70% or more and less than 90%).

test system: barnyard grass; assay: Test Example 5: herbicidal effect by foliage application, plastic box (Table 20, symbol H); format: in vivo, barnyard grass (Echinochloa crus-galli); details: foliage application, 320 g/ha, evaluated three weeks after application
Procedure, shortened: as §3

Which “herbicidal effect on H: barnyard grass (criteria 0-5)” value does the source give for `COc1cc(F)ccc1-c1sc2ccc(C(C)=O)cc2c1-c1c(O)c(C)nn(C)c1=O` [2-192] here?
Its value is 2 (Herbicidal rate of 20% or more and less than 40%).

test system: wild oat; assay: Test Example 5: herbicidal effect by foliage application, plastic box (Table 20, symbol I); format: in vivo, wild oat (Avena fatua); details: foliage application, 320 g/ha, evaluated three weeks after application
Procedure, shortened: as §3

With `COc1cc(F)ccc1-c1sc2ccc(C(C)=O)cc2c1-c1c(O)c(C)nn(C)c1=O` [2-192] as the compound, how does the “herbicidal effect on I: wild oat (criteria 0-5)” value read?
Its value is 0 (Herbicidal rate of 5% or less (almost no effect)).

test system: blackgrass; assay: Test Example 5: herbicidal effect by foliage application, plastic box (Table 20, symbol J); format: in vivo, blackgrass (Alopecurus myosuroides); details: foliage application, 320 g/ha, evaluated three weeks after application
Procedure, shortened: as §3

For `COc1cc(F)ccc1-c1sc2ccc(C(C)=O)cc2c1-c1c(O)c(C)nn(C)c1=O` [2-192], which “herbicidal effect on J: blackgrass (criteria 0-5)” value is on record?
Its value is 4 (Herbicidal rate of 70% or more and less than 90%).

test system: Italian ryegrass; assay: Test Example 5: herbicidal effect by foliage application, plastic box (Table 20, symbol K); format: in vivo, Italian ryegrass (Lolium multiflorum); details: foliage application, 320 g/ha, evaluated three weeks after application
Procedure, shortened: as §3

Which “herbicidal effect on K: Italian ryegrass (criteria 0-5)” value does the source give for `COc1cc(F)ccc1-c1sc2ccc(C(C)=O)cc2c1-c1c(O)c(C)nn(C)c1=O` [2-192] here?
The value was 0 (Herbicidal rate of 5% or less (almost no effect)).

test system: windgrass; assay: Test Example 5: herbicidal effect by foliage application, plastic box (Table 20, symbol L); format: in vivo, windgrass (Apera spica-venti); details: foliage application, 320 g/ha, evaluated three weeks after application
Procedure, shortened: as §3

How did the “herbicidal effect on L: windgrass (criteria 0-5)” value turn out when `COc1cc(F)ccc1-c1sc2ccc(C(C)=O)cc2c1-c1c(O)c(C)nn(C)c1=O` [2-192] was run?
Its value is 0 (Herbicidal rate of 5% or less (almost no effect)).

test system: velvetleaf; assay: Test Example 5: herbicidal effect by foliage application, plastic box (Table 20, symbol M); format: in vivo, velvetleaf (Abutilon theophrasti); details: foliage application, 320 g/ha, evaluated three weeks after application
Procedure, shortened: as §3

With `COc1cc(F)ccc1-c1sc2ccc(C(C)=O)cc2c1-c1c(O)c(C)nn(C)c1=O` [2-192] as the compound, how does the “herbicidal effect on M: velvetleaf (criteria 0-5)” value read?
The value was 4 (Herbicidal rate of 70% or more and less than 90%).

test system: redroot pigweed; assay: Test Example 5: herbicidal effect by foliage application, plastic box (Table 20, symbol N); format: in vivo, redroot pigweed (Amaranthus retroflexus); details: foliage application, 320 g/ha, evaluated three weeks after application
Procedure, shortened: as §3

With `COc1cc(F)ccc1-c1sc2ccc(C(C)=O)cc2c1-c1c(O)c(C)nn(C)c1=O` [2-192] as the compound, how does the “herbicidal effect on N: redroot pigweed (criteria 0-5)” value read?
The value was 3 (Herbicidal rate of 40% or more and less than 70%).

test system: lambsquarters; assay: Test Example 5: herbicidal effect by foliage application, plastic box (Table 20, symbol O); format: in vivo, lambsquarters (Chenopodium album); details: foliage application, 320 g/ha, evaluated three weeks after application
Procedure, shortened: as §3

Which “herbicidal effect on O: lambsquarters (criteria 0-5)” value does the source give for `COc1cc(F)ccc1-c1sc2ccc(C(C)=O)cc2c1-c1c(O)c(C)nn(C)c1=O` [2-192] here?
The value was 3 (Herbicidal rate of 40% or more and less than 70%).

test system: chickweed; assay: Test Example 5: herbicidal effect by foliage application, plastic box (Table 20, symbol P); format: in vivo, common chickweed (Stellaria media); details: foliage application, 320 g/ha, evaluated three weeks after application
Procedure, shortened: as §3

`COc1cc(F)ccc1-c1sc2ccc(C(C)=O)cc2c1-c1c(O)c(C)nn(C)c1=O` [2-192] was tested. Which “herbicidal effect on P: chickweed (criteria 0-5)” value did it give?
Its value is 5 (Herbicidal rate of 90% or more (almost completely withered)).

test system: persian speedwell; assay: Test Example 5: herbicidal effect by foliage application, plastic box (Table 20, symbol R); format: in vivo, Persian speedwell (Veronica persica); details: foliage application, 320 g/ha, evaluated three weeks after application
Procedure, shortened: as §3

For `COc1cc(F)ccc1-c1sc2ccc(C(C)=O)cc2c1-c1c(O)c(C)nn(C)c1=O` [2-192], which “herbicidal effect on R: persian speedwell (criteria 0-5)” value is on record?
Its value is 5 (Herbicidal rate of 90% or more (almost completely withered)).

— patent US20230085307A1, “PYRIDAZINONE COMPOUND AND HERBICIDE” (NISSAN CHEMICAL CORPORATION, priority 2019, published 2023)
